According to publication PMC10633902, “Investigating the antimicrobial activity, cytotoxicity, and action mechanism of acylated and amidated derivatives of AurH1 antifungal peptide” (BMC Microbiology, 2023):
In brackets after ≈: the same amount, converted by molar mass. Like-named read-outs stand apart in the source and are kept apart here.

Tests used:
C. albicans = assay: Killing kinetic assay (time of killing); assay type: cell-based, Candida albicans; conditions: 1X MIC concentration
[1] = system: Candida glabrata (ATCC 90,030); assay: microbe, parasite or virus in culture; assay type: cell-based; conditions: C. glabrata, mean of 3 independent tests
Procedure: (§1) The human skin fibroblast (Hu02 cell) and human breast cancer cells (MDA-MB-231 and SKBR-3 cell lines) were purchased from the National Cell Bank of Iran, Pasture Institute of Ira) for cytotoxicity test. Antimicrobial effects of the Ac-AurH1, AurH1-NH2, and AurH1 against the selected bacteria and fungi were conducted using a standard serial dilution method in a 96-well microplate. For this purpose, the desired fungal and bacterial strains were grown overnight at 37 °C (Some of the fungi were incubated at 25 °C) in related media (SDA for fungi and MHA for bacteria). […] Next, serially diluted synthetic peptides in a volume of 100 μL were added to the microtitre plates, followed by 100 μL of bacteria and fungi to give a final inoculum of 5 × 10^5 colony-forming units (CFU)/ml (a 0.5 McFarland standard inoculum). […] In this test, penicillin and streptomycin antibiotics for bacteria and fluconazole, nystatin, and amphotericin B for fungal strains were used as antibiotic control. […] All tests were repeated three times independently.

[2] = system: Aspergillus flavus (ATCC 24,109); assay: microbe, parasite or virus in culture; assay type: cell-based; conditions: A. flavus, mean of 3 independent tests
Procedure: as §1

[3] = system: Candida albicans (ATCC 10,231); assay: microbe, parasite or virus in culture; assay type: cell-based; conditions: C. albicans, mean of 3 independent tests
Procedure: as §1

[4] = system: Aspergillus niger (ATCC 9142); assay: microbe, parasite or virus in culture; assay type: cell-based; conditions: A. niger, mean of 3 independent tests
Procedure: as §1

[5] = system: Candida krusei (ATCC 28,870); assay: microbe, parasite or virus in culture; assay type: cell-based; conditions: C. krusei, mean of 3 independent tests
Procedure: as §1

[6] = system: Staphylococcus aureus (ATCC 25,923); assay: microbe, parasite or virus in culture; assay type: cell-based; conditions: Staphylococcus aureus, ATCC25; S. aureus; mean of 3 independent tests; read-out: MIC
Procedure: as §1

[7] = system: Escherichia coli (ATCC 25,922); assay: microbe, parasite or virus in culture; assay type: cell-based; conditions: Escherichia coli, ATCC25; E. coli; mean of 3 independent tests; read-out: MIC
Procedure: as §1

In the case of `OC(Cn1cncn1)(Cn1cncn1)c1ccc(F)cc1F` [Flu, Fluconazole, reference compound], the “time to kill all C. albicans (maximum fungicidal effect)” value (C. albicans) is reported as “could not eliminate C. albicans after 24 h”, the MBC ([1]; Nakaseomyces glabratus, ATCC90) is reported as 500 µg/mL (≈ 1630 µM) and the MIC ([1]; Nakaseomyces glabratus, ATCC90, read-out: MIC) is reported as 125 µg/mL (≈ 408 µM). For the same compound, the MIC ([2]; Aspergillus flavus, ATCC24, read-out: MIC) was > 1000 µg/mL, the MBC ([3]; Candida albicans, ATCC10) was 500 µg/mL (≈ 1630 µM) and the MIC ([3]; Candida albicans, ATCC10, read-out: MIC) was 62.5 µg/mL (≈ 204 µM). The MBC ([4]; Aspergillus niger, ATCC9142) was > 1000 µg/mL, the MIC ([4]; Aspergillus niger, ATCC9142, read-out: MIC) was 500 µg/mL (≈ 1630 µM) and the MBC ([5]; Pichia kudriavzevii, ATCC28) was 250 µg/mL (≈ 816 µM). The MIC ([5]; Pichia kudriavzevii, ATCC28, read-out: MIC) was 62.5 µg/mL (≈ 204 µM).
For `C[C@@H]1[C@H](O)[C@@H](C)/C=C/C=C/CC/C=C/C=C/C=C/C=C/C(O[C@H]2O[C@H](C)[C@@H](O)[C@H](N)[C@@H]2O)CC2O[C@](O)(CC(O)C(O)CCC(O)CC(O)CC(O)CC(=O)O[C@H]1C)CC(O)C2C(=O)O` (some centres unmarked) [Nys, Nystatin, reference compound], the “time to kill all C. albicans (maximum fungicidal effect)” value (C. albicans) was 8 h, the MBC (MFC) [1] was 3.9 µg/mL (≈ 4.21 µM) and the MIC [1] was 3.9 µg/mL (≈ 4.21 µM). The “MBC (MFC)” value [2] was 62.50 µg/mL (≈ 67.5 µM), the MIC [2] was 7.81 µg/mL (≈ 8.43 µM) and the “MBC (MFC)” value [3] was 3.90 µg/mL (≈ 4.21 µM). For the same compound, the MIC [3] was 1.95 µg/mL (≈ 2.11 µM), the “MBC (MFC)” value [4] was 125 µg/mL (≈ 135 µM) and the MIC [4] was 31.25 µg/mL (≈ 33.7 µM). The “MBC (MFC)” value [5] was 3.90 µg/mL (≈ 4.21 µM) and the MIC [5] was 1.95 µg/mL (≈ 2.11 µM).
Work on `[H]/N=C(/N)N[C@H]1[C@H](O)[C@@H](O)[C@H](O[C@@H]2O[C@@H](C)[C@](O)(C=O)[C@H]2O[C@@H]2O[C@@H](CO)[C@H](O)[C@@H](O)[C@@H]2NC)[C@@H](N/C(N)=N\[H])[C@@H]1O` [Strep, Streptomycin, reference compound] yielded an MIC [6] of 62.5 µg/mL (≈ 107 µM) and an MIC [7] of 3.9 µg/mL (≈ 6.71 µM).
